Experimental data taken from the supplement of paper PMC10307832.

How the values were obtained:
Experiment in all cases: relative viability (nuclei count vs DMSO), 5 days (fraction); higher = more cells survive
EKVX = tested on: EKVX
In short: (§1)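 Relative viability was taken as the ratio of nuclei in treated wells to nuclei in vehicle wells. Lung cancer cell lines in 1536-well plates received compounds by pin tool one day after seeding, either one drug alone or a fixed anchor-drug dose plus five library-drug doses (not always all listed) in √10 steps. Nuclei were counted on 4× images after 5 days of treatment, and values are medians of duplicate plates.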

H3255 = tested on: H3255
In short: as §1

HCC-15 = tested on: HCC-15
In short: as §1

HCC-827 = tested on: HCC-827
In short: as §1

LCLC-97TM1 = tested on: LCLC-97TM1
In short: as §1

LK-2 = tested on: LK-2
In short: as §1

NCI-H1355 = tested on: NCI-H1355
In short: as §1

NCI-H1650 = tested on: NCI-H1650
In short: as §1

NCI-H1734 = tested on: NCI-H1734
In short: as §1

NCI-H1755 = tested on: NCI-H1755
In short: as §1

NCI-H1975 = tested on: NCI-H1975
In short: as §1

NCI-H2342 = tested on: NCI-H2342
In short: as §1

NCI-H2405 = tested on: NCI-H2405
In short: as §1

NCI-H322M = tested on: NCI-H322M
In short: as §1

NCI-H520 = tested on: NCI-H520
In short: as §1

NCI-H661 = tested on: NCI-H661
In short: as §1

PC-14 = tested on: PC-14
In short: as §1

PC-3 [JPC-3] = tested on: PC-3 [JPC-3]
In short: as §1

RERF-LC-KJ = tested on: RERF-LC-KJ
In short: as §1

Cc1sc2c(c1C)C(c1ccc(Cl)cc1)=N[C@@H](CC(=O)OC(C)(C)C)c1nnc(C)n1-2 [JQ1] + Nc1ncn([C@H]2C[C@H](O)[C@@H](CO)O2)c(=O)n1 [Decitabine] (partner 2 µM)
relative viability (EKVX; first compound 0.04 µM): 0.338
relative viability (EKVX; first compound 0.1265 µM): 0.36
relative viability (EKVX; first compound 0.4 µM): 0.359
relative viability (EKVX; first compound 1.265 µM): 0.35
relative viability (EKVX; first compound 4 µM): 0.336
relative viability (H3255; first compound 0.04 µM): 0.562
relative viability (H3255; first compound 0.4 µM): 0.539
relative viability (H3255; first compound 1.265 µM): 0.305
relative viability (H3255; first compound 4 µM): 0.249
relative viability (HCC-15; first compound 0.04 µM): 0.617
relative viability (HCC-15; first compound 0.1265 µM): 0.491
relative viability (HCC-15; first compound 0.4 µM): 0.6
relative viability (HCC-15; first compound 1.265 µM): 0.406
relative viability (HCC-15; first compound 4 µM): 0.408
relative viability (HCC-827; first compound 0.04 µM): 0.34
relative viability (HCC-827; first compound 0.1265 µM): 0.302
relative viability (HCC-827; first compound 1.265 µM): 0.333
relative viability (HCC-827; first compound 4 µM): 0.314
relative viability (LCLC-97TM1; first compound 0.04 µM): 0.231
relative viability (LCLC-97TM1; first compound 0.1265 µM): 0.223
relative viability (LCLC-97TM1; first compound 0.4 µM): 0.188
relative viability (LCLC-97TM1; first compound 1.265 µM): 0.156
relative viability (LCLC-97TM1; first compound 4 µM): 0.125
relative viability (LK-2; first compound 0.04 µM): 0.272
relative viability (LK-2; first compound 0.1265 µM): 0.351
relative viability (LK-2; first compound 0.4 µM): 0.27
relative viability (LK-2; first compound 1.265 µM): 0.132
relative viability (LK-2; first compound 4 µM): 0.129
relative viability (NCI-H1355; first compound 0.04 µM): 0.348
relative viability (NCI-H1355; first compound 0.1265 µM): 0.342
relative viability (NCI-H1355; first compound 0.4 µM): 0.337
relative viability (NCI-H1355; first compound 1.265 µM): 0.319
relative viability (NCI-H1355; first compound 4 µM): 0.249
relative viability (NCI-H1650; first compound 0.04 µM): 0.442
relative viability (NCI-H1650; first compound 0.1265 µM): 0.44
relative viability (NCI-H1650; first compound 0.4 µM): 0.333
relative viability (NCI-H1650; first compound 1.265 µM): 0.185
relative viability (NCI-H1650; first compound 4 µM): 0.146
relative viability (NCI-H1734; first compound 0.04 µM): 0.492
relative viability (NCI-H1734; first compound 0.1265 µM): 0.549
relative viability (NCI-H1734; first compound 0.4 µM): 0.523
relative viability (NCI-H1734; first compound 1.265 µM): 0.408
relative viability (NCI-H1734; first compound 4 µM): 0.364
relative viability (NCI-H1755; first compound 0.04 µM): 0.744
relative viability (NCI-H1755; first compound 0.1265 µM): 0.738
relative viability (NCI-H1755; first compound 0.4 µM): 0.747
relative viability (NCI-H1755; first compound 1.265 µM): 0.731
relative viability (NCI-H1755; first compound 4 µM): 0.719
relative viability (NCI-H1975; first compound 0.04 µM): 0.393
relative viability (NCI-H1975; first compound 0.1265 µM): 0.282
relative viability (NCI-H1975; first compound 0.4 µM): 0.331
relative viability (NCI-H1975; first compound 1.265 µM): 0.261
relative viability (NCI-H1975; first compound 4 µM): 0.232
relative viability (NCI-H2342; first compound 0.04 µM): 0.79
relative viability (NCI-H2342; first compound 0.1265 µM): 0.636
relative viability (NCI-H2342; first compound 0.4 µM): 0.737
relative viability (NCI-H2342; first compound 1.265 µM): 0.76
relative viability (NCI-H2342; first compound 4 µM): 0.665
relative viability (NCI-H2405; first compound 0.04 µM): 0.81
relative viability (NCI-H2405; first compound 0.4 µM): 0.75
relative viability (NCI-H2405; first compound 1.265 µM): 0.577
relative viability (NCI-H2405; first compound 4 µM): 0.471
relative viability (NCI-H322M; first compound 0.04 µM): 0.631
relative viability (NCI-H322M; first compound 0.1265 µM): 0.886
relative viability (NCI-H322M; first compound 0.4 µM): 0.641
relative viability (NCI-H322M; first compound 1.265 µM): 0.594
relative viability (NCI-H322M; first compound 4 µM): 0.592
relative viability (NCI-H520; first compound 0.04 µM): 0.52
relative viability (NCI-H520; first compound 0.1265 µM): 0.561
relative viability (NCI-H520; first compound 0.4 µM): 0.443
relative viability (NCI-H520; first compound 1.265 µM): 0.349
relative viability (NCI-H520; first compound 4 µM): 0.355
relative viability (NCI-H661; first compound 0.04 µM): 0.505
relative viability (NCI-H661; first compound 0.1265 µM): 0.47
relative viability (NCI-H661; first compound 0.4 µM): 0.527
relative viability (NCI-H661; first compound 1.265 µM): 0.475
relative viability (NCI-H661; first compound 4 µM): 0.492
relative viability (PC-14; first compound 0.04 µM): 0.188
relative viability (PC-14; first compound 0.1265 µM): 0.19
relative viability (PC-14; first compound 0.4 µM): 0.185
relative viability (PC-14; first compound 1.265 µM): 0.0999
relative viability (PC-14; first compound 4 µM): 0.117
relative viability (PC-3 [JPC-3]; first compound 0.04 µM): 0.864
relative viability (PC-3 [JPC-3]; first compound 0.1265 µM): 0.796
relative viability (PC-3 [JPC-3]; first compound 0.4 µM): 0.778
relative viability (PC-3 [JPC-3]; first compound 1.265 µM): 0.509
relative viability (PC-3 [JPC-3]; first compound 4 µM): 0.561
relative viability (RERF-LC-KJ; first compound 0.04 µM): 0.648
relative viability (RERF-LC-KJ; first compound 0.1265 µM): 0.532
relative viability (RERF-LC-KJ; first compound 0.4 µM): 0.56
relative viability (RERF-LC-KJ; first compound 1.265 µM): 0.333
relative viability (RERF-LC-KJ; first compound 4 µM): 0.235
